Test results reported in patent US7220720B2, “Melanin-concentrating hormone analogs” (Merk & Co., Inc., priority 2000, dated 2007).
Like-named read-outs stand apart in the source and are kept apart here. Where a SMILES comes first, the peptide text is derived from it. Bridges are numbered along the chain shown (N, C = ends).

Legend:
human MCH receptor [1] = molecular target: T1, human MCH receptor (Homo sapiens, UniProt Q99705); assay: Radiolabeled MCH-R binding assay: inhibition of [125I]-human MCH (Phe13, Tyr19 substituted) binding to cell membranes (filter or SPA format); parameters: expressed in transfected cells; conditions: read-out: Activity IC50
T1 sequence (Q99705 whole entry): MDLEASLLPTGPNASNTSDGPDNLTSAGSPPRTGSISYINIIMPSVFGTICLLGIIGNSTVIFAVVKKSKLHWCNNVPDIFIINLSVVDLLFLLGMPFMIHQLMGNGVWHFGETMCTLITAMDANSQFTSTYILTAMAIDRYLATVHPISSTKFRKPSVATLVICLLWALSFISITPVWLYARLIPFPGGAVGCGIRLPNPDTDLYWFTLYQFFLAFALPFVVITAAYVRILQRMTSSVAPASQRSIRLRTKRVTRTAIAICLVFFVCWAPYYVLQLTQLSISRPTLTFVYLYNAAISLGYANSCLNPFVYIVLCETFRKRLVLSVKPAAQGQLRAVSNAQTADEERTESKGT
Description: Cell membranes were prepared on ice. Each T-75 flask was rinsed twice with 10 ml of Enzyme-free Cell Dissociation Buffer (Specialty Media, Lavallette, N.J.), and the cell monolayer was detached in an additional 10 ml of Enzyme-free Cell Dissociation Buffer by incubation at room temperature for 10 minutes. Dissociated cells were centrifuged (500×g for 10 minutes at 4° C.), resuspended in 5 ml homogenization buffer (10 mM Tris-HCl, pH 7.4, 0.01 mM Pefabloc, 10 μM phosphoramidon, 40 μg/ml bacitracin) and then homogenized using a glass homogenizer (10–15 strokes). The homogenate was centrifuged for 10 minutes (1,000×g at 4° C.). The resulting supernatant was then centrifuged at 38,700×g for 15 minutes at 4° C. Pelleted membranes were resuspended (passed through 25 gauge needle 5 times), snap-frozen on liquid nitrogen, and stored at −80° C. until use.
Binding was performed in a 96-well filter assay or Scintillation Proximity Assay (SPA)-based format using cell membranes from a stable CHO or HEK-293 cell line expressing the MCH receptor. For the filter assay, reactions were performed at 20° C. for 1 hour in a total volume of 0.2 ml containing: 0.05 ml of membrane suspension (˜3 μg protein), 0.02 ml of [^125I]-human MCH (Phe^13, Tyr^19 substituted; 30 pM), 0.01 ml of competitor and 0.12 ml of binding buffer (50 mM Tris-HCl, pH 7.4, 10 mM MgCl2, 2 mM EDTA, 200 μg/ml bacitracin, 1 μM phosphoramidon).
Bound radioligand was separated by rapid vacuum filtration (Packard Filtermate 96-well cell harvester) through GF/C filters pretreated for 1 hour with 1% polyethylenimine. After application of the membrane suspension to the filter, the filters were washed 3 times with 3 ml each of ice-cold 50 mM Tris-HCl, pH 7.4, 10 mM MgCl2, 2 mM EDTA, 0.04% Tween 20 and the bound radioactivity on the filters was quantitated by scintillation counting (TopCount device).
For the SPA-based assay, WGA-PVT beads (NEN Life Sciences Products) were resuspended in Dulbecco's PBS with calcium and magnesium (500 mg beads in 4 ml PBS). For each 96-well assay plate, 0.18 ml of beads was pre-coated with MCH receptor by mixing with 0.2 ml MCH receptor CHO cell membranes (˜0.2–4 mg protein) and 1.5 ml SPA assay buffer (50 mM Tris-HCl, pH 7.4, 10 mM MgCl2, 2 mM EDTA, 0.1% BSA, 12% glycerol). The suspension was mixed gently for 20 minutes, 12.3 ml of assay buffer and protease inhibitors were added (final concentration given): 2 μg/ml leupeptin, 10 μM phosphoramidon, 40 μg/ml bacitracin, 5 μg/ml aprotinin, 0.1 mM Pefabloc.
Coated beads were kept on ice until use. For each well, 0.145 ml of beads were added to Optiplate assay plates (Packard 6005190), followed by 0.002–0.004 ml of competitor and 0.05 ml of [^125I]-human MCH (Phe^13, Tyr^19 substituted; 30 pM). Binding reactions were allowed to proceed at room temperature for 3 hours. Quantitation was performed by scintillation counting (TopCount device).

human MCH receptor [2] = molecular target: T1, human MCH receptor; assay: Aequorin bioluminescence functional assay in 293-AEQ17 cells transfected with human MCH receptor; type: cell-based; parameters: expressed in transfected cells; host or cells: 293-AEQ17 (aequorin-expressing HEK-293 reporter line), transient lipofectamine transfection, pcDNA-3 vector; Activity Activation %: concentration or dose not given beside the values; conditions: for % Activation at 10 μM: Table 1, aequorin functional assay
Description: The aequorin bioluminescence assay is a reliable test for measuring the activity of G protein-coupled receptors that couple through the Gα protein subunit family consisting of Gq and Gll and leads to the activation of phospholipase C, mobilization of intracellular calcium and activation of protein kinase C.
Following approximately 40 hours of expression the apo-aequorin in the cells was charged for 4 hours with coelenterazine (10 μM) under reducing conditions (300 μM reduced glutathione) in ECB buffer (140 mM NaCl, 20 mM KCl, 20 mM HEPES-NaOH [pH=7.4], 5 mM glucose, 1 mM MgCl2, 1 mM CaCl2, 0.1 mg/ml bovine serum albumin).
The cells were harvested, washed once in ECB medium and resuspended to 500,000 cells/ml. 100 μl of cell suspension (corresponding to 5×10^4 cells) was then injected into the test plate containing MCH or MCH analogs, and the integrated light emission was recorded over 30 seconds, in 0.5 second units. 20 μL of lysis buffer (0.1% final Triton X-100 concentration) was then injected and the integrated light emission recorded over 10 seconds, in 0.5 second units. The “fractional response” values for each well were calculated by taking the ratio of the integrated response to the initial challenge to the total integrated luminescence including the Triton X-100 lysis response.

[3] = Table 3, N-methyl-amino acid analogs
[4] = Table 5, position 10 modification
[5] = Table 4, position 6 modification
[6] = Table 6, position 13 modification
[7] = Table 7, combinations and position 8

## CSCC[C@@H]1NC(=O)[C@@H](NC(=O)[C@H](CCCNC(=N)N)NC(C)=O)CSSC[C@@H](C(N)=O)NC(=O)[C@@H]2CCCN2C(=O)[C@H](CCCNC(=N)N)NC(=O)[C@H](Cc2ccc(O)cc2)NC(=O)[C@H](C(C)C)NC(=O)[C@H](CCCNC(=N)N)NC(=O)CNC(=O)[C@H](CC(C)C)NC1=O [compound 7]
Human MCH receptor [1]; Table 2, D-amino acid analogs
  IC50: 0.5 nM
Human MCH receptor [1]; [3]
  IC50: 1.4 nM
Human MCH receptor [1]; [4]
  IC50: 0.5 nM
Human MCH receptor [2]
  % Activation at 10 μM: 123%
Human MCH receptor [2]; Table 2, D-amino acid analogs
  Activity Activation %: 99%
  EC50: 20 nM
Human MCH receptor [2]; [3]
  Activity Activation %: 99%
  EC50: 20 nM
Human MCH receptor [2]; [5]
  Activity Activation %: 99%
Human MCH receptor [2]; [4]
  Activity Activation %: 99%
  EC50: 20 nM
Human MCH receptor [2]; [6]
  Activity Activation %: 99%
  EC50: 20 nM
Human MCH receptor [2]; [7]
  Activity Activation %: 99%
  EC50: 20 nM

## CSCC[C@@H]1NC(=O)[C@@H](NC(=O)[C@H](CCCNC(=N)N)NC(=O)[C@H](CC(C)C)NC(=O)[C@H](CCSC)NC(=O)[C@H](CC(=O)O)NC(=O)[C@H](Cc2ccccc2)NC(=O)[C@@H](N)CC(=O)O)CSSC[C@@H](C(=O)N[C@@H](Cc2c[nH]c3ccccc23)C(=O)N[C@@H](CCC(N)=O)C(=O)N[C@H](C(=O)O)C(C)C)NC(=O)[C@@H]2CCCN2C(=O)[C@H](CCCNC(=N)N)NC(=O)[C@H](Cc2ccc(O)cc2)NC(=O)[C@H](C(C)C)NC(=O)[C@H](CCCNC(=N)N)NC(=O)CNC(=O)[C@H](CC(C)C)NC1=O [compound 11]
Human MCH receptor [2]
  % Activation at 10 μM: 100%
Human MCH receptor [2]; Table 2, D-amino acid analogs
  Activity Activation %: 100%
Human MCH receptor [2]; [3]
  Activity Activation %: 100%
Human MCH receptor [2]; [5]
  Activity Activation %: 100%
Human MCH receptor [2]; [4]
  Activity Activation %: 100%
Human MCH receptor [2]; [6]
  Activity Activation %: 100%
Human MCH receptor [2]; [7]
  Activity Activation %: 100%

## CSCC[C@@H]1NC(=O)[C@@H](NC(=O)[C@H](C)NC(C)=O)CSSC[C@@H](C(N)=O)NC(=O)[C@@H]2CCCN2C(=O)[C@H](CCCNC(=N)N)NC(=O)[C@H](Cc2ccc(O)cc2)NC(=O)[C@H](C(C)C)NC(=O)[C@H](CCCNC(=N)N)NC(=O)CNC(=O)[C@H](CC(C)C)NC1=O [compound 31] (Ac-ACMLGRVYRPC-NH2; disulfide 2-11 (inferred))
Human MCH receptor [2]; [5]
  Activity Activation %: 135%

## CSCC[C@@H]1NC(=O)[C@@H](NC(=O)[C@@H]2CCCN2C(C)=O)CSSC[C@@H](C(N)=O)NC(=O)[C@@H]2CCCN2C(=O)[C@H](CCCNC(=N)N)NC(=O)[C@H](Cc2ccc(O)cc2)NC(=O)[C@H](C(C)C)NC(=O)[C@H](CCCNC(=N)N)NC(=O)CNC(=O)[C@H](CC(C)C)NC1=O [compound 33]
Human MCH receptor [2]; [5]
  Activity Activation %: 133%

## CSCC[C@@H]1NC(=O)[C@@H](NC(=O)[C@H](CC(N)=O)NC(C)=O)CSSC[C@@H](C(N)=O)NC(=O)[C@@H]2CCCN2C(=O)[C@H](CCCNC(=N)N)NC(=O)[C@H](Cc2ccc(O)cc2)NC(=O)[C@H](C(C)C)NC(=O)[C@H](CCCNC(=N)N)NC(=O)CNC(=O)[C@H](CC(C)C)NC1=O [compound 34]
Human MCH receptor [2]; [5]
  Activity Activation %: 96%

## CSCC[C@@H]1NC(=O)[C@@H](NC(=O)[C@H](CO)NC(C)=O)CSSC[C@@H](C(N)=O)NC(=O)[C@@H]2CCCN2C(=O)[C@H](CCCNC(=N)N)NC(=O)[C@H](Cc2ccc(O)cc2)NC(=O)[C@H](C(C)C)NC(=O)[C@H](CCCNC(=N)N)NC(=O)CNC(=O)[C@H](CC(C)C)NC1=O [compound 35]
Human MCH receptor [2]; [5]
  Activity Activation %: 120%

## CSCC[C@@H]1NC(=O)[C@@H](NC(=O)[C@H](CCC(=O)O)NC(C)=O)CSSC[C@@H](C(N)=O)NC(=O)[C@@H]2CCCN2C(=O)[C@H](CCCNC(=N)N)NC(=O)[C@H](Cc2ccc(O)cc2)NC(=O)[C@H](C(C)C)NC(=O)[C@H](CCCNC(=N)N)NC(=O)CNC(=O)[C@H](CC(C)C)NC1=O [compound 36]
Human MCH receptor [2]; [5]
  Activity Activation %: 113%

## CSCC[C@@H]1NC(=O)[C@@H](N)CSSC[C@@H](C(N)=O)NC(=O)[C@@H]2CCCN2C(=O)[C@H](CCCNC(=N)N)NC(=O)[C@H](Cc2ccc(O)cc2)NC(=O)[C@H](C(C)C)NC(=O)[C@H](CCCNC(=N)N)NC(=O)CNC(=O)[C@H](CC(C)C)NC1=O [compound 37]
Human MCH receptor [2]; [5]
  Activity Activation %: 120%

## CSCC[C@@H]1NC(=O)[C@@H](NC(C)=O)CSSC[C@@H](C(N)=O)NC(=O)[C@@H]2CCCN2C(=O)[C@H](CCCNC(=N)N)NC(=O)[C@H](Cc2ccc(O)cc2)NC(=O)[C@H](C(C)C)NC(=O)[C@H](CCCNC(=N)N)NC(=O)CNC(=O)[C@H](CC(C)C)NC1=O [compound 38]
Human MCH receptor [2]; [5]
  Activity Activation %: 82%

## CSCC[C@@H]1NC(=O)[C@@H](NC(=O)[C@@H](N)CCCNC(=N)N)CSSC[C@@H](C(N)=O)NC(=O)[C@@H]2CCCN2C(=O)[C@H](CCCNC(=N)N)NC(=O)[C@H](Cc2ccc(O)cc2)NC(=O)[C@H](C(C)C)NC(=O)[C@H](CCCNC(=N)N)NC(=O)CNC(=O)[C@H](CC(C)C)NC1=O [compound 39]
Human MCH receptor [2]; [5]
  Activity Activation %: 106%

## CSCC[C@@H]1NC(=O)[C@@H](NC(=O)[C@H](CCCNC(=N)N)NC(C)=O)CSSC[C@@H](C(N)=O)NC(=O)[C@@H]2CCCN2C(=O)[C@H](CCCNC(=N)N)NC(=O)[C@H](Cc2ccc(O)cc2)NC(=O)[C@H](C(C)C)NC(=O)[C@H](CCCNC(=N)N)NC(=O)[C@H](C)NC(=O)[C@H](CC(C)C)NC1=O [compound 47] (Ac-RCMLARVYRPC-NH2; disulfide 2-11)
Human MCH receptor [2]; [4]
  Activity Activation %: 104%

## CSCC[C@@H]1NC(=O)[C@@H](NC(=O)[C@H](CCCNC(=N)N)NC(C)=O)CSSC[C@@H](C(N)=O)NC(=O)[C@@H]2CCCN2C(=O)[C@H](CCCNC(=N)N)NC(=O)[C@H](Cc2ccc(O)cc2)NC(=O)[C@H](C(C)C)NC(=O)[C@H](CCCNC(=N)N)NC(=O)[C@H](CC(C)C)NC(=O)[C@H](CC(C)C)NC1=O [compound 48]
Human MCH receptor [2]; [4]
  Activity Activation %: 106%

## CSCC[C@@H]1NC(=O)[C@@H](NC(=O)[C@H](CCCNC(=N)N)NC(C)=O)CSSC[C@@H](C(N)=O)NC(=O)[C@@H]2CCCN2C(=O)[C@H](CCCNC(=N)N)NC(=O)[C@H](Cc2ccc(O)cc2)NC(=O)[C@H](C(C)C)NC(=O)[C@H](CCCNC(=N)N)NC(=O)[C@H](CC(N)=O)NC(=O)[C@H](CC(C)C)NC1=O [compound 51] (Ac-RCMLNRVYRPC-NH2; disulfide 2-11)
Human MCH receptor [2]; [4]
  Activity Activation %: 106%
  EC50: 23 nM

## CSCC[C@@H]1NC(=O)[C@@H](NC(=O)[C@H](CCCNC(=N)N)NC(C)=O)CSSC[C@@H](C(N)=O)NC(=O)[C@@H]2CCCN2C(=O)[C@H](CCCNC(=N)N)NC(=O)[C@H](Cc2ccc(O)cc2)NC(=O)[C@H](C(C)C)NC(=O)[C@H](CCCNC(=N)N)NC(=O)[C@H](CO)NC(=O)[C@H](CC(C)C)NC1=O [compound 52] (Ac-RCMLSRVYRPC-NH2; disulfide 2-11 (inferred))
Human MCH receptor [2]; [4]
  Activity Activation %: 104%

## CSCC[C@@H]1NC(=O)[C@@H](NC(=O)[C@H](CCCNC(=N)N)NC(C)=O)CSSC[C@@H](C(N)=O)NC(=O)[C@@H]2CCCN2C(=O)[C@H](CCCNC(=N)N)NC(=O)[C@H](Cc2ccccc2)NC(=O)[C@H](C(C)C)NC(=O)[C@H](CCCNC(=N)N)NC(=O)CNC(=O)[C@H](CC(C)C)NC1=O [compound 62]
Human MCH receptor [2]; [6]
  Activity Activation %: 96%
